Like-named read-outs stand apart in the source and are kept apart here.
Tests used:
[1] = Rat pharmacokinetics and brain penetration (IV and PO); format: in vivo; conditions: male, SD, 3 mg/kg IV, 10 mg/kg PO; for Kp / Kp uu: brain and plasma; for Kp / Kp uu / clearance / bioavailability / half-life: Rat; for Kp: read-out: Kp (brain/plasma drug concentration ratio); for Kp uu: read-out: Kp, uu (unbound brain/unbound plasma drug concentration ratio); for clearance / bioavailability / half-life: plasma; for bioavailability: read-out: F % (oral bioavailability); for half-life: read-out: t½ (converted)
Procedure: Example 29: Pharmacokinetics and Brain Penetration Experiment to Determine Brain and Plasma Concentrations of Compounds After IV Administration to Male CD1 Mice or Male SD Rat
The study design consisted of 2 groups (24 animals and 18 animals) and administrating the drug [IV: 3 mg/kg (1.5 mL/kg) via foot dorsal vein], [PO: 10 mg/kg (5 mL/kg) via oral gavage] and collecting samples at terminal bleeding for plasma, brain and CSF at 0.25, 0.5, 1, 4, 8 and 24 hr. The IV and PO dosing solutions were prepared in 50 mM citrate buffer (pH 4.0) at 2 mg/mL. The blood collection was performed as follows: the animal was restrained manually at the designated time points, approximately 150 μL of blood sample was collected via cardiac puncture vein into EDTA-2K tubes. The blood samples were maintained in wet ice first and centrifuged to obtain plasma (2000 g, 4° C., 5 min) within 15 minutes post sampling. The brain collection was performed as follows: a mid-line incision was made in the animal's scalp and the skin was retracted. Using small bone cutters and rongeurs, the skull overlying the brain was removed. The brain was removed using a spatula and rinsed with cold saline. The brain was placed in screw-top tubes and then stored under −70° C. until analysis. The CSF collection was performed as follows: the animal was euthanized under deep anesthesia with air bubble tail vein injection. The CSF was collected by direct puncture of butterfly needle into the cisterna magna, using the occipital bone and the wings of the atlas as landmarks. A piece of white paper was used as a background to monitor color change in the sample just above the needle during collection. Upon observation of color change, the PE tubing was quickly clamped off above the color change and cut just above the clamped site. The clear sample was drawn into the syringe.
Plasma Samples Preparation:
An aliquot of 30 μL sample was added with 100 MeCN containing 100 ng/mL IS (Dexamethasone). The mixture was vortexed for 10 min and centrifuged at 5800 rpm for 10 min. An aliquot of 40 μL supernatant was added with 40 μl H2O and the mixture was vortexed for 5 min. An aliquot of 2 μL supernatant was injected for LC-MS/MS analysis.
Brain Samples Preparation:
The sample was homogenized with 3 volumes (v/w) of PBS. An aliquot of 30 μL sample was added with 100 μL ACN containing 100 ng/mL IS (Dexamethasone). The mixture was vortexed for 10 min and centrifuged at 5800 rpm for 10 min. An aliquot of 40 μL supernatant was added with 40 μl H2O and the mixture was vortexed for 5 min. An aliquot of 2 μL supernatant was injected for LC-MS/MS analysis.
An aliquot of 10 μL sample was added with 10 μLMeOH/H2O (1/1) and […], ACN containing 200 ng/mL IS (Dexamethasone) 120 μL H2O. The mixture was vortexed for 5 min. An aliquot of 2 μL supernatant was injected for LC-MS/MS analysis.
The sample analysis was performed on UPLC-MS/MS-02 (Triple Quad 4000) under the following conditions: positive ion, ESI, MRM detection using dexamethasone as internal standard. HPLC conditions: mobile phase A: H2O-0.1% FA, mobile phase B: MeCN-0.1% FA on ACQUITY UPLC HSS T3 (2.1×50 mm, 1.8 μm) column at 60° C.

brain proteins = test: Fraction of drug unbound to brain proteins, mouse; format: in vitro ADME
plasma proteins = test: Fraction of drug unbound to plasma proteins, mouse; format: in vitro ADME; conditions: Mouse plasma proteins (Table 10)
[2] = Rat brain, read-out: AUClast (b)
[3] = Rat plasma, read-out: AUClast (p)

Row | Compound | Kp [1] | Kp uu [1] | clearance [1] [mL/min/kg] | bioavailability [1] [%] | half-life [1] [h] | AUC(0-t) [1, 2] [ng·h/mL] | AUC(0-t) [1, 3] [ng·h/mL] | Fu (b) (brain proteins; Mouse brain proteins (Table 13)) [%] | Fu (p) % (plasma proteins) [%] | Fu (b) % (brain proteins; Mouse brain proteins (Table 10)) [%]
1 | CN1CCN(c2cccc3nc([C@H]4CCC[C@@H](c5ncccc5Cl)N4)cn23)CC1 (racemic) [Compound I-149] | 8.4 | 1.6 | 127 | 37.9 | 6.7 | 3820 | 457 |  |  | 
2 | CN1CCN(c2cccc3nc([C@@H]4CCC[C@H](c5ncccc5Cl)N4)cn23)CC1 (single isomer, unassigned) [Compound I-189] | 4.03 | 0.99 | 68.8 | 25.4 | 8.14 | 2300 | 570 |  |  | 
3 | CN1CCN(c2cccc3nc([C@H]4CCC[C@@H](c5ncccc5Cl)N4)cn23)CC1 (single isomer, unassigned) [Compound I-188] | 5.65 | 1.04 | 74.3 | 36.9 | 6.87 | 4470 | 791 | 5.4 |  | 
4 | Cc1cccnc1[C@@H]1CCC[C@H](c2cn3c(N4CCN(C)CC4)cccc3n2)N1 [Compound I-187] |  |  |  |  |  |  |  |  | 24.9 | 7.1
5 | Cc1cccnc1[C@@H]1CCC[C@H](c2nc3cccc(N4CCN(C)CC4)n3c2Cl)N1 [Compound I-146] | 1.82 | 0.18 | 24.3 | 70.1 | 7.89 | 7800 | 4280 |  | 5.3 | 

Reference: US10759796B2, “CXCR4 inhibitors and uses thereof” (X4 Pharmaceuticals, Inc., priority 2016, dated 2020)
